Assay results as given in patent publication US20240140980A1, “HETEROCYCLIC INHIBITORS OF CD73 FOR TREATMENT OF DISEASE” (Teon Therapeutics, Inc., priority 2022, published 2024).

Experiments:
CD73 [1] = molecular target: T1, CD73 (Homo sapiens (Human), UniProt P21589); assay: Biochemical CD73 Assay (Malachite Green free phosphate detection); settings: recombinant human CD73 2 nM, AMP 40 μM, 45 min at 37° C.
Protocol: Activity of recombinant CD73 was measured by quantification of free phosphate using the Malachite Green detection system (R&D Systems #DY996). Test compounds were solubilized in DMSO and dispensed into 384-well polystyrene plates in a 8-point 3× titration in duplicates. Then, 10 μL of 4 nM human CD73 enzyme (Novoprotein #C446) in phosphate-free assay buffer (10 mM HEPES, pH 7.4, 125 mM NaCl, 1 mM KCl, 10 mM glucose, 2 mM MgCl2) was added to the plates. The compound and enzyme were incubated for 15 min at RT. Then, 10 μL of 80 μM AMP (Sigma Aldrich #A1752) in the assay buffer was added and the reaction mixture was incubated for 45 min at 37° C. The final concentrations of CD73 and AMP in the reaction were 2 nM and 40 μM, respectively. The reaction was stopped by adding 5 μL of Malachite Green reagent A and incubating for 10 min at RT, followed by addition of 5 μL of Malachite Green reagent B and incubation for 20 min at RT. Absorbance was then read at 620 nm with the Flexstation spectrophotometer (Molecular Devices). The IC50 values were determined using a four-parameter nonlinear regression curve fit.

CD73 [2] = molecular target: T1, CD73; assay: Cellular CD73 Assay (primary human CD3+ T-cells with AMP); assay type: cell-based; settings: primary human peripheral blood CD3+ T-cells, 40 μM AMP, 3 days; readout (cell division or IL-2/IFN-γ) not specified for the column
Protocol: Primary human peripheral blood CD3+ T-cells obtained from AllCells were thawed and cultured for 24 h in a complete growth medium (Stemline T-cell expansion medium, Sigma #S1694) supplemented with 1 mM L-glutamine, 50 IU/mL of IL-2 and 25 μL/mL of Dynabeads™ Human T-Activator CD3/CD28 (Thermo-Fisher #11161D) at a density of 10^6 cells/mL. Then, cells were labeled with 1.25 μM Cell Trace Violet (Thermo-Fisher #C34557) according to the manufacturer's instructions. Labeled cells were resuspended in a warm complete growth medium and plated onto U-bottom 96-well plates at 25,000 cells/90 μL/well. Next, 500× serial compound dilutions were prepared in DMSO in a 8-point 3-fold titration and then diluted 1:25 into a complete growth medium, generating 20× compound dilutions. Then, 5 μL of 20× compound dilutions was added to the cells and incubated for 60 min at 37° C. After this, 5 μL of 20×AMP was added to a final concentration of 40 μM. Treated cells were cultured for 3 days at 37° C., 5% CO2. Thereafter, cells were gently pelleted by centrifugation, and supernatants were collected and frozen at −80° C. for subsequent cytokine analysis. Cell pellets were resuspended in 100 μL of PBS/2% FBS and gently pipetted up and down to produce a single cell suspension. Then, 3 μL of 7-AAD (BD Biosciences #559925) was added to each well and plates were incubated on ice for 5 min. Cells were then washed and resuspended in 150 μL of PBS/2% FBS. Divided and non-divided live cells were quantified by Attune NxT flow cytometer. Cell Trace Violet-labeled cells cultured without a T-cell activator were used as the nondividing control.
For IL-2 and IFN-γ cytokine analysis, supernatants were thawed on ice, diluted 1:10 in the buffer. The concentration of cytokines was determined using Meso Scale Discovery according to the manufacturer's instructions (Meso Scale Discovery). The EC50 values were determined using a four-parameter nonlinear regression curve fit (GraphPad Prism Version 9.2, GraphPad Software Inc., San Diego, CA).

T1 sequence (P21589 27-574): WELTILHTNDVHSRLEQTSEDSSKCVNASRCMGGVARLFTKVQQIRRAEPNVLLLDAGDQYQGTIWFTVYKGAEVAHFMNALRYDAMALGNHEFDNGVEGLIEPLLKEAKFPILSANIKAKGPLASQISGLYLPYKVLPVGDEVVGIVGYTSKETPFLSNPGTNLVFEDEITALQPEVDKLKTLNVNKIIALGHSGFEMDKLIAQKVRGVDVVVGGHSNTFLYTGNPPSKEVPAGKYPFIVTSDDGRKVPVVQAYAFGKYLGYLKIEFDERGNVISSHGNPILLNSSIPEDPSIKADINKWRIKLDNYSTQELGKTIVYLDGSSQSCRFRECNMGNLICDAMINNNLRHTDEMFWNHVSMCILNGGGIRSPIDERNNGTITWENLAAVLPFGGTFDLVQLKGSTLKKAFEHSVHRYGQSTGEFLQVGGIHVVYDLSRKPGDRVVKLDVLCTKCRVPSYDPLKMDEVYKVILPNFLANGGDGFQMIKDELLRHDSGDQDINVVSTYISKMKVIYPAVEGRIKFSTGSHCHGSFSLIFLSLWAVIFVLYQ

Structure (SMILES) | IC50 (CD73 [1]) [nM] | EC50 (CD73 [2]) [nM]
CNC(=O)N[S@@](C)(=O)=NC(=O)[C@@](COC)(OC[C@H]1O[C@@H](n2ncc3c(NC4CCCC4)nc(Cl)nc32)[C@H](O)[C@@H]1O)P(=O)(O)O [Example 10, ((S)-2-(((2R,3S,4R,5R)-5-(6-Chloro-4-(cyclopentylamino)-1H-pyrazolo[3,4-d]pyrimidin-1-yl)-3,4-dihydroxytetrahydrofuran-2-yl)methoxy)-3-methoxy-1-(((S)-methyl(3-methylureido)(oxo)-λ^6-sulfaneylidene)amino)-1-oxopropan-2-yl)phosphonic Acid] | 0.31 | 0.72
COC[C@@](OC[C@H]1O[C@@H](n2ncc3c(NC4CCCC4)nc(Cl)nc32)[C@H](O)[C@@H]1O)(C(=O)N=[S@@](C)(N)=O)P(=O)(O)O [Example 3, ((2S)-1-((Amino(methyl)(oxo)-λ^6-sulfaneylidene)amino)-2-(((2R,3S,4R,5R)-5-(6-chloro-4-(cyclopentylamino)-1H-pyrazolo[3,4-d]pyrimidin-1-yl)-3,4-dihydroxytetrahydrofuran-2-yl)methoxy)-3-methoxy-1-oxopropan-2-yl)phosphonic Acid] | 1 | 1.5
